Legend:
H-526 tumor = assay: Effect on growth of H-526 tumor transplanted to nude mice; format: in vivo, Balb/c nu/nu mice
Procedure: H-526 cells were cultured in a 5% CO2 incubator (37° c.) using an RPMI1640 medium containing 10% FCS. After the culture medium was collected, H-526 cells were washed with PBS twice and were suspended in PBS at 5.0×10^7 cells/ml. This cell suspension (0.1 ml) was transplanted to the subcutaneous parts of the right flank of 6-week female Balb/c nu/nu mice (purchased from Charles River Laboratories, Inc.). After transplantation, administration of a test substance (4-(3-chloro-4-(cyclopropylaminocarbonyl)aminophenoxy)-7-methoxy-6-quinolinecarboxamide) was started at the point the tumor volume reached approximately 150 mm^3, and thus, oral administration was conducted twice daily for a period of 14 days. The test substance was suspended in a 0.5% methylcellulose solution (Wako Pure Chemical Industries Co., Ltd.) so as to give a dose of 0.1 ml/10 g body weight.
The tumor volume was measured with a caliper twice weekly during the administration period. The long and short diameters of the tumor were measured with a caliper and the tumor volume was calculated according to the equation: ½×long diameter×short diameter×short diameter. Here, the experiment was conducted in a vehicle control group of 10 animals (solvent-administered group) as well as in a test substance administered group of 5 animals.

c-Kit kinase [1] = target: T1, c-Kit kinase (Homo sapiens, UniProt P10721); assay: Effect on c-Kit kinase phosphorylation in H-526 tumor transplanted to nude mice (immunoblot); format: in vivo, Balb/c nu/nu mice; parameters: from tissue; host or cells: H-526 tumour xenograft extracted from Balb/c nu/nu mice; settings: H-526 tumor in nude mice
Procedure: 0.1 ml of a H-526 cell suspension prepared at a concentration of 5.0×10^7 cells/ml, was transplanted to the subcutaneous parts of the right latus of 6-week female Balb/c nu/nu mice (purchased from Charles River Laboratories, Inc.). The animals were then divided into a vehicle control group (solvent-administered group) and a test substance (4-(3-chloro-4-(cyclopropylaminocarbonyl)aminophenoxy)-7-methoxy-6-quinolinecarboxamide) administered group at the point the tumor volume reached 300-1000 mm^3: the test substance was administered to the latter group. The extracted tumor was placed in a cell lysate buffer (50 mM HEPES (pH 7.4), 150 mM NaCl, 10% glycerol, 1% Triton X-100, 1.5 mm MgCl2, 1 mM EDTA, 100 mM NaF, 1 mM PMSF, 10 μg/ml aprotinin, 50 μg/ml leupeptin, 1 μg/ml peptatin A, 1 mM Na3VO4, 25 mM , βglycerophosphate, and phosphatase inhibitor cocktail 11) and homogenized. After centrifugation, the supernatant was protein quantified, and a 3×SDS sample loading buffer was added to prepare a cell lysate sample. Subsequently, the cell lysate was heat-treated at 94° c. for 10 minutes and cryopreserved at −20° c.
The cell lysate sample which was equivalent to 30 μg of protein was electrophoresed on a 4-20% gradient polyacrylamide gel (Daiichi Pure Chemicals Co., Ltd.). After electrophoresis, the sample was transferred to a PVDF membrane (Amersham Pharmacia Biotech Inc.) for 3 hours. In order to assay phosphorylated c-Kit, c-Kit and β-actin, immunoblot was performed using a phospho-c-kit (Tyr719) antibody (Cell Signaling Technologies, Inc.), an anti c-Kit antibody (Cell Signaling Technologies, Inc.) and an anti β-actin antibody (Sigma) as a primary antibody and an anti-rabbit IgG, HRP-linked antibody (Cell Signaling Technologies, Inc.) as a secondary antibody. After the membrane was washed, it was developed with a Super Signal (Pierce Biotechnology, Inc.).

[2] = system: small cell lung cancer cell line H-526 expressing c-Kit kinase; assay: Effect on cell proliferation stimulated by SCF; format: cell-based; settings: Homo sapiens, NCI-H526; H-526 cells, SCF stimulation, 7th day, Cell Counting Kit-8; read-out: IC50 (concentration required for 50% inhibition of the cell proliferation)
Procedure: After culturing, H-526 cells were washed with PBS three times and were suspended in an RPMI1640 medium containing 0.1% BSA (Sigma Corporation) (hereinafter abbreviated as “BSA-RPMI1640”) at 1.0×10^5 cells/ml. […] After color development, the absorbance of each well was determined using a MTP-32 plate reader (Colona Electric Co., Ltd.) at a measuring wavelength of 450 nm and at a reference wavelength of 660 nm. The absorbance of each well was subtracted by the absorbance of the well without addition of SCF, and then the ratio of the absorbance of the well with addition of the test substance to the ratio of the absorbance of the well without addition of the test substance was determined. This ratio was used to calculate the concentration of the test substance required for 50% inhibition of the cell proliferation (IC50).

c-Kit kinase [3] = target: T1, c-Kit kinase; assay: Effect on c-Kit kinase phosphorylation by SCF stimulation (immunoblot); format: cell-based; parameters: in the small cell lung cancer cell line H-526 expressing c-Kit kinase; host or cells: H-526 small cell lung cancer cells; settings: H-526 cells, 1 hour with test substance, SCF 5 minutes, phospho-c-kit (Tyr719) immunoblot
Procedure: 4-(3-Chloro-4-(cyclopropylaminocarbonyl)aminophenoxy)-7-methoxy-6-quinolinecarboxamide was tested for its effect on the phosphorylation of the c-Kit kinase molecule by SCF stimulation in the small cell lung cancer cell line H-526 expressing c-Kit kinase.
H-526 cells were cultured in a 5% CO2 incubator (37° c.) using an RPMI1640 medium containing 10% FCS. After culturing, H-526 cells were washed with PBS three times and were suspended in a BSA-RPMI1640 medium at 5.0×10^5 cells/ml. Each 1 ml of this cell suspension was inoculated to the well of a 24-well plate and the suspension was cultured in a 5% CO2 incubator (37° c.) for 6 hours. After 6-hours culturing, 1 ml of BSA-RPMI1640 containing a diluted test substance (4-(3-Chloro-4-(cyclopropylaminocarbonyl)aminophenoxy)-7-methoxy-6-quinolinecarboxamide) was added to each well and culturing was carried out in a 5% CO2 incubator (37° c.) for 1 hour. Additional culturing was then carried out in a 5% CO2 incubator (37° c.) for 5 minutes after the addition of 10 μl of SCF (10 μg/ml, R&D Corporation). After 5-minutes culturing, the cells were washed with PBS and 100 μl of SDS sample loading buffer was added to the cells to prepare a cell lysate sample. After the sample was heat-treated at 94° c. for 10 minutes, it was cryopreserved at −20° c. […]

T1 sequence (P10721 26-976): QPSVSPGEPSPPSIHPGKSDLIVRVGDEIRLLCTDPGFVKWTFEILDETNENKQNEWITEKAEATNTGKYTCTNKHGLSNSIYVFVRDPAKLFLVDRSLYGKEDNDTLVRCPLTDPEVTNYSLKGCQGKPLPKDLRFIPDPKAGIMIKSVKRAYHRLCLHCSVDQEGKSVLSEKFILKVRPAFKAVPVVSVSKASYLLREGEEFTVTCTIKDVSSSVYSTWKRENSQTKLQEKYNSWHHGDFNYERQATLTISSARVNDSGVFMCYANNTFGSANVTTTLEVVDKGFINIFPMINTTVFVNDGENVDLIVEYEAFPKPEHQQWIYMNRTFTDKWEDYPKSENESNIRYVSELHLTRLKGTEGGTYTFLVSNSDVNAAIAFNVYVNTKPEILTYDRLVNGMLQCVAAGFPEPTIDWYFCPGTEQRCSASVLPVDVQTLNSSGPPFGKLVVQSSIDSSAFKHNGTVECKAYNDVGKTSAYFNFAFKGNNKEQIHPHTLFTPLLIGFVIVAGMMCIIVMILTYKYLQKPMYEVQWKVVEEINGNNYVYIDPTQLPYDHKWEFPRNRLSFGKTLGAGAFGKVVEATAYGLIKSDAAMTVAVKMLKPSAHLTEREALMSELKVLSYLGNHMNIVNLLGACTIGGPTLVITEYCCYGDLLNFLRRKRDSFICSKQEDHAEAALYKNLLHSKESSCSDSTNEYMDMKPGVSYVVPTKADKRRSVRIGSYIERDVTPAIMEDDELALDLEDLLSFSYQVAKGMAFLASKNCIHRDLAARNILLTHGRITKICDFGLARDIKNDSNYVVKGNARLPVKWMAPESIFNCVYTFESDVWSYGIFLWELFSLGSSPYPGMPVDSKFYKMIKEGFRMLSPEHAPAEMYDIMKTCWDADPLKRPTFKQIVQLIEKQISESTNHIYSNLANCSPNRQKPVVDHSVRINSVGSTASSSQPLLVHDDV

Compound | anti-tumor effect (H-526 tumor; H-526 tumor in nude mice, 160 mg/kg) | phosphorylated c-Kit in tumor tissue (c-Kit kinase [1]; 160 mg/kg) | IC50 [2] | growth of the nude mouse transplanted H-526 tumor (tumor volume) (H-526 tumor; oral, twice daily for 14 days) | c-Kit and β-actin in tumor tissue (c-Kit kinase [1]; 30 or 100 mg/kg) | phosphorylated c-Kit in tumor tissue (c-Kit kinase [1]; 30 or 100 mg/kg) | c-Kit kinase phosphorylation in the presence of SCF (c-Kit kinase [3])
Cc1ccc(NC(=O)c2ccc(CN3CCN(C)CC3)cc2)cc1Nc1nccc(-c2cccnc2)n1 [STI571, reference compound] | showed little anti-tumor effect | partially inhibited phosphorylation |  |  |  |  | 
COc1cc2nccc(Oc3ccc(NC(=O)NC4CC4)c(Cl)c3)c2cc1C(N)=O [4-(3-chloro-4-(cyclopropylaminocarbonyl)aminophenoxy)-7-methoxy-6-quinolinecarboxamide] |  |  | 9.46 nM | suppressed the growth of the nude mouse transplanted H-526 tumor in a dose-dependent manner | remained unchanged | completely inhibited phosphorylation | suppressed the c-Kit kinase phosphorylation that would take place in the presence of SCF in a concentration-dependent manner

Reference: patent publication US20070117842A1, “Polymorph of 4-[3-chloro-4-(cyclopropylaminocarbonyl)aminophenoxy]-7-methoxy-6- quinolinecarboxamide and a process for the preparation of the same” (priority 2003, published 2007)
